In ChEMBL document CHEMBL1201862, “PubChem BioAssay data set” (2004):
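All cell lines were grown in 96-well plates and treated with compound for 48 hours. Abbreviation: GI50, concentration required for 50% inhibition of growth.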 Activity calls are given as the source filed them. Rule as the data show it: active = GI50 up to about 1.1 µM and inactive = higher. Residues, ends and D or L forms follow the SMILES beside them.

Legend:
Assay in all cases: NCI anticancer screen, dose series, 48 h
U-251 = test system: U-251
SF-539 = test system: SF-539
HCT-116 = test system: HCT-116
A498 = test system: A498
MDA-MB-231 = test system: MDA-MB-231
NCI/ADR-RES = test system: NCI/ADR-RES
RXF 393 = test system: RXF 393
SK-MEL-28 = test system: SK-MEL-28
Malme-3M = test system: Malme-3M
UACC-257 = test system: UACC-257
TK-10 = test system: TK-10
MOLT-4 = test system: MOLT-4
RPMI-8226 = test system: RPMI-8226
MDA-N = test system: MDA-N
M14 = test system: M14
MCF7 = test system: MCF7
A549 = test system: A549
UACC-62 = test system: UACC-62
CAKI-1 = test system: CAKI-1
T47D = test system: T47D

SMILES | GI50 (U-251) | GI50 (SF-539) | GI50 (HCT-116) | GI50 (A498) | GI50 (MDA-MB-231) | GI50 (NCI/ADR-RES) | GI50 (RXF 393) | GI50 (SK-MEL-28) | GI50 (Malme-3M) | GI50 (UACC-257) | GI50 (TK-10) | GI50 (MOLT-4) | GI50 (RPMI-8226) | GI50 (MDA-N) | GI50 (M14) | GI50 (MCF7) | GI50 (A549) | GI50 (UACC-62) | GI50 (CAKI-1) | GI50 (T47D)
Cn1cc(C2NC(=O)c3ccccc3N2)c2ccccc21 (stereo not given) | 0.889 µM (active) | 1.86 µM (inactive) | 0.587 µM (active) | 0.206 µM (active) | 2.14 µM (inactive) | 0.491 µM (active) | 0.681 µM (active) | 0.643 µM (active) | 0.316 µM (active) | 5.6 µM (inactive) | 2.94 µM (inactive) | 0.255 µM (active) | 0.249 µM (active) | 0.0632 µM (active) | 0.578 µM (active) | 0.124 µM (active) | 1.22 µM (inactive) | 0.373 µM (active) |  | 
CNc1nc(=S)[nH]c2sc3c(c12)CCCC3 | > 75 µM (inactive) |  | > 75 µM (inactive) | > 75 µM (inactive) | > 75 µM (inactive) | > 75 µM (inactive) | > 75 µM (inactive) | > 75 µM (inactive) | > 75 µM (inactive) | > 75 µM (inactive) | > 75 µM (inactive) | > 75 µM (inactive) | > 75 µM (inactive) |  |  | > 75 µM (inactive) |  | > 75 µM (inactive) | > 75 µM (inactive) | > 75 µM (inactive)
N#C/N=C(\N)NCCO | 37.2 µM (inactive) | > 100 µM (inactive) | > 100 µM (inactive) | > 100 µM (inactive) |  |  | 16.6 µM (inactive) | > 100 µM (inactive) | > 100 µM (inactive) | > 100 µM (inactive) | > 100 µM (inactive) | > 100 µM (inactive) | > 100 µM (inactive) |  | > 100 µM (inactive) |  | > 100 µM (inactive) | > 100 µM (inactive) | > 100 µM (inactive) | 
C/N=c1\ss/c(=N\C(=S)N(C)C)n1C1CCCCC1 | > 31.6 µM (inactive) | > 100 µM (inactive) | > 10 µM (inactive) | > 31.6 µM (inactive) |  |  | > 31.6 µM (inactive) | > 31.6 µM (inactive) | > 31.6 µM (inactive) | > 31.6 µM (inactive) | > 31.6 µM (inactive) | > 31.6 µM (inactive) | > 100 µM (inactive) |  | > 10 µM (inactive) |  | > 31.6 µM (inactive) | > 31.6 µM (inactive) | > 31.6 µM (inactive) | 
COC(=O)/C(=C(/C)c1ccco1)P(=O)(OC)OC | > 100 µM (inactive) | > 100 µM (inactive) | > 100 µM (inactive) | > 100 µM (inactive) | > 100 µM (inactive) | > 100 µM (inactive) | > 100 µM (inactive) | > 100 µM (inactive) | > 100 µM (inactive) | > 100 µM (inactive) | > 100 µM (inactive) | > 100 µM (inactive) | > 100 µM (inactive) |  | > 100 µM (inactive) | > 100 µM (inactive) | > 100 µM (inactive) | > 100 µM (inactive) | > 100 µM (inactive) | > 100 µM (inactive)
CCOC(=O)c1c(C)c2c(n1C)CCc1c[nH]nc1-2 | > 100 µM (inactive) | > 100 µM (inactive) | > 100 µM (inactive) | > 100 µM (inactive) |  | > 100 µM (inactive) | > 100 µM (inactive) | > 100 µM (inactive) | > 100 µM (inactive) | > 100 µM (inactive) |  | > 100 µM (inactive) | > 100 µM (inactive) |  |  | > 100 µM (inactive) | > 100 µM (inactive) | > 100 µM (inactive) | > 100 µM (inactive) | 
NC1CNC(=O)c2cscc21 (stereo not given) | > 100 µM (inactive) |  | > 100 µM (inactive) | > 100 µM (inactive) |  | 3.01 µM (inactive) | > 100 µM (inactive) | > 100 µM (inactive) | > 100 µM (inactive) | > 100 µM (inactive) |  | > 100 µM (inactive) | > 100 µM (inactive) | > 100 µM (inactive) | > 100 µM (inactive) | > 100 µM (inactive) | > 100 µM (inactive) | > 100 µM (inactive) | > 100 µM (inactive) | 
NNC(=O)/C(NC(=O)c1ccccc1)=C(\N)c1ccc(Cl)cc1 | > 100 µM (inactive) | > 100 µM (inactive) | > 100 µM (inactive) | 80.5 µM (inactive) |  |  | > 100 µM (inactive) | > 100 µM (inactive) | > 100 µM (inactive) | > 100 µM (inactive) | > 100 µM (inactive) | 28.3 µM (inactive) | 73.5 µM (inactive) |  | > 100 µM (inactive) |  | > 100 µM (inactive) | > 100 µM (inactive) | > 100 µM (inactive) | 
c1ccc(C2=NOC3(c4ccccc4)SC4CCCCC4CN23)cc1 (stereo not given) | 15.2 µM (inactive) | 18.7 µM (inactive) | 17.8 µM (inactive) | 35.5 µM (inactive) |  |  | 15.9 µM (inactive) | 89.1 µM (inactive) | 29.8 µM (inactive) | 38.5 µM (inactive) | 83.9 µM (inactive) | 12.7 µM (inactive) | 22 µM (inactive) |  | 21.9 µM (inactive) |  | 20.5 µM (inactive) | 25 µM (inactive) | 19.5 µM (inactive) | 
COc1cc2c(cc1OC)C(C(c1ccccc1)c1ccccc1)N(C)CC2 (stereo not given) | 61.9 µM (inactive) | > 100 µM (inactive) | > 58.6 µM (inactive) | > 100 µM (inactive) |  | 68.9 µM (inactive) | 20 µM (inactive) | > 79.3 µM (inactive) | 23.8 µM (inactive) | 32.9 µM (inactive) |  | 38.3 µM (inactive) | 36.6 µM (inactive) |  |  | 52.4 µM (inactive) | > 100 µM (inactive) | > 86.7 µM (inactive) | 0.617 µM (active) | 
CC(C)(c1ccc(OC#N)cc1)c1ccc(OC#N)cc1 | > 68.5 µM (inactive) | > 100 µM (inactive) | > 44.1 µM (inactive) | > 100 µM (inactive) |  |  | > 87.9 µM (inactive) | > 100 µM (inactive) | > 100 µM (inactive) | > 100 µM (inactive) | > 100 µM (inactive) | > 100 µM (inactive) | > 52.6 µM (inactive) |  | > 100 µM (inactive) |  | > 100 µM (inactive) | > 100 µM (inactive) | > 100 µM (inactive) | 
[O-][Cl+3]([O-])([O-])[O-].[O-][Cl+3]([O-])([O-])[O-].c1ccn2c(N3CCCC3)[n+]3c4ccccc4n4c(N5CCCC5)[n+]5ccccc5c4c3c2c1 | 28.2 µM (inactive) | 57.9 µM (inactive) | > 100 µM (inactive) | > 100 µM (inactive) | > 100 µM (inactive) | > 100 µM (inactive) | 38.3 µM (inactive) | > 100 µM (inactive) | 36.2 µM (inactive) | 34.6 µM (inactive) | > 100 µM (inactive) | > 100 µM (inactive) | 98.6 µM (inactive) |  | > 100 µM (inactive) | 67.1 µM (inactive) | > 100 µM (inactive) | 41.8 µM (inactive) | > 100 µM (inactive) | 43.5 µM (inactive)
c1nc(OCC2CCCCC2)c2nc[nH]c2n1 | 58.3 µM (inactive) | 36.1 µM (inactive) | 35.7 µM (inactive) |  | 63.2 µM (inactive) | 61.4 µM (inactive) | 60.7 µM (inactive) | > 100 µM (inactive) | 70.5 µM (inactive) | 91.8 µM (inactive) | > 100 µM (inactive) | 31.6 µM (inactive) | 15.6 µM (inactive) | 28.2 µM (inactive) | 59.4 µM (inactive) |  | 66.4 µM (inactive) | 47.1 µM (inactive) | > 100 µM (inactive) | 
O=C1C=C2SC3C[C@@]24CC1[N+]1=c2c4c(c(O)c4c2=C(C=N4)CC1)N3 | 1.9 µM (inactive) | 1.9 µM (inactive) | 1.81 µM (inactive) | 5.31 µM (inactive) |  | 6.68 µM (inactive) | 1.99 µM (inactive) | 1.94 µM (inactive) | 1.85 µM (inactive) | 1.7 µM (inactive) |  | 1.53 µM (inactive) | 2.08 µM (inactive) |  |  | 2.08 µM (inactive) | 6.17 µM (inactive) | 1.78 µM (inactive) | 2.62 µM (inactive) | 
NCCNCCNc1ccc(NCCNCCN)c2c1C(=O)c1c(O)ccc(O)c1C2=O | > 100 µM (inactive) | > 100 µM (inactive) | > 100 µM (inactive) | 70 µM (inactive) | > 100 µM (inactive) | > 100 µM (inactive) | > 100 µM (inactive) | > 100 µM (inactive) | > 100 µM (inactive) | > 100 µM (inactive) | > 100 µM (inactive) | 14 µM (inactive) | > 100 µM (inactive) | > 100 µM (inactive) | > 100 µM (inactive) | 59.7 µM (inactive) | > 100 µM (inactive) | > 100 µM (inactive) | > 100 µM (inactive) | 
CCC(C)C(NC(=O)C(CCCCN)NC(=O)C(NC(=O)C(CCC(N)=O)NC(=O)C(N)CCCNC(=N)N)C(C)CC)C(=O)NC(Cc1c[nH]c2ccccc12)C(=O)NC(Cc1ccccc1)C(=O)NC(CCC(N)=O)C(=O)NC(CC(N)=O)C(=O)NC(CCCNC(=N)N)C(=O)NC(CCCNC(=N)N)C(=O)NC(CCSC)C(=O)NC(CCCCN)C(=O)NC(Cc1c[nH]c2ccccc12)C(=O)NC(CCCCN)C(=O)NC(CCCCN)C(=O)N1CCCC1C(=O)NC(C)C(=O)NC(CCCCN)C(=O)NC(CCCNC(=N)N)C(=O)NC(CCCCN)C(=O)NC(CC(C)C)C(=O)NC(Cc1ccccc1)C(=O)NCC(=O)O (stereo not given) (H-RQIKIWFQNRRMKWKKPAKRKLFG-OH; configuration not given here) | 17 µM (inactive) |  | 16.3 µM (inactive) |  | 10.5 µM (inactive) | > 25 µM (inactive) | > 25 µM (inactive) | > 25 µM (inactive) | 6.75 µM (inactive) | 21.9 µM (inactive) | > 25 µM (inactive) | > 25 µM (inactive) | 5.93 µM (inactive) | > 25 µM (inactive) | 12.1 µM (inactive) | > 25 µM (inactive) | > 25 µM (inactive) |  | > 25 µM (inactive) | 
